From US20250387494A1, “Prodrugs Based On Tumor Targeting Near Infrared Dye-Drug Conjugates (DDC)” (Lahjavida, Inc., priority 2022, published 2025) come the findings set out here.

The test system of series [1] is 2D lung cancer cell line (A549). Briefly: Compound uptake/toxicity study by nuclei counts. It is filed as cell-based. The following applies: 5 μM, over all the time points. The protocol: Cell viability assay was measured using Cell Titer-Glo luminescent cell ability kit via two parameters: Hoechst nuclei counts via imaging, and 2D Celltiter-glo measuring ATP content from live cells. IC50 values were calculated with a 4-variable curve analysis.
(§1) The tumor-targeting ability and therapeutic efficacy of a four additional DDC prodrugs together with the controls of two corresponding NIR dyes, as well as two chemotherapeutic drugs were explored (Table 6) in 2D lung cancer cell line (A549) studies.
(§2) The cell lines were dosed with 5 μM of said compounds. Two studies were carried out: one was the compounds uptake study by the tumor cell line as judged by both the NIR intensity mean (FIG. 6) and by nuclei counts (FIG. 7) per well over time.

Series [2] relates to SW620 tumor. Briefly: Tumor growth inhibition, intratumor injection. It is filed as in vivo, mice. The following applies: for Tumor increase rate: intratumor 15 mg/kg; for Tumor size / tumor growth rate: intratumor injection 15 mg/kg. The protocol:
(§3) Thirty-nine (39) female athymic nude mice were injected subcutaneously with 10×10^6 SW620 cells in 0.1 ml PBS with 20% Matrigel on the right flank. When the tumor size reaches within the range of approximately ˜70-200 mm^3, mice were sorted as day 0. Thirty (30) mice were randomized into five (5) groups of six (6) mice per group and dosed singly (I.V.) with the test articles or the vehicle control (This day is Day 1: treatment starts). Administrations of Vehicle (saline), NIR dye (“Dye3” in Table 2), Irinotecan, NIR dye-linker-SN38 (XV), and NIR dye-linker Doxo (XVI) are described in Table 6. Before treatment starts/randomization of mice, the 6 mice whose tumors were getting within the range first were used to determine the maximum tolerated dose (MTD) or dose level of two articles NIR day-linker-SN38 (XV), and NIR dye-linker Doxo (XVI), 3 mice for each.
(§4) Tumor size will be assessed daily, and once noticed palpably, the tumor measurements/body weight started daily up to the randomization day, and before randomization, to get 6 mice as mentioned above for the MTD study, and NIR imaging. After randomization, tumor size and body weight were assessed three times a week (M, W, F) for the duration of the study. Monitoring: a), Record BW on M, W, and F; b). Record signs of distress daily; c). Record tumor size M, W, F; d). In vivo NIR imaging (Group 1, 2, 4, and 5): Ex: 780 nm, Em: 810 nm, on day 1:0.5 hr, 2 hr, 4 hr, 8 hr post day 1 dosing, then 24 hr (day 2), then in vivo imaging, every M, W, and F, until the study ended on day 35.
(§5) The mice were injected with the said compounds either via intravenous tail injection or with intratumor injection for. Two studies were carried out: one was the compounds uptake study by the tumor as judged by the NIR imaging of both the whole mice body (FIGS. 10A, 10B, 11A, and 11B) and of the mice organs (FIGS. 12A, 12B, 13A, 13B, 14A and 14B). The injection method for these study was via intravenous tail injection. The second was the efficacy evaluation of these compounds as judged by their tumor growth inhibition, the injection method for these study was via both intravenous tail injection and intratumor injection.

Series [3] relates to SW620 tumor. Briefly: In vivo NIR fluorescent imaging of whole body and organs. The settings on record: for NIR fluorescent signal in tumor (organ imaging) / tumor accumulation, whole body NIR imaging / NIR signal (organ imaging): 10 s exposure; for tumor accumulation, whole body NIR imaging: intravenous tail injection, 11 days after second dosing at 15 mg/kg. The protocol:
as §3, §4
Mice were euthanized on day 35 or mice will be sacrificed when tumor size was more than 2000 mm^3. On termination day, NIR imaging of various organs of 3 mice (if the remaining mice >3) from each group 1, 2, 4 and 5. For each mouse: the tumor, heart, liver, spleen, lungs, kidneys, and brain are imaged at the same time.
as §5

For series [4], the system named is 2D lung cancer cell line (A549). Briefly: Compound uptake study by NIR mean intensity. It is filed as cell-based. The following applies: 5 μM, compared with control dyes Dye 1 and Dye 2, all time points. As for the experimental part: The tumor cells were seeded in a chamber and incubated for 24 h at 37° C. under 5% CO2. After removal of medium, cells were treated with the test materials at 5 μM concentration. When reaching the time points, cells were washed with PBS three times, then fluorescent images were taken under a fluorescent microscope.
as §1, §2

Series [5] concerns SW620 tumor. Briefly: Tumor growth inhibition, intravenous tail injection. It is filed as in vivo, mice. Also on record: key to Tumor size: tumor size in mm^3. The following applies: for Tumor size: i.v. 10 mg/kg, second dose 15 mg/kg on Day 11; for Tumor increase rate: i.v.; for tumor growth rate: intravenous. The protocol: as §3, §4, §5
Where [6] appears, read: Day 4 vs Day 1 (cell stands under Day 1).
Where [7] appears, read: Day 6 vs Day 4 (cell stands under Day 4).
The mark [8] stands for this setting: Day 8 vs Day 6 (cell stands under Day 6).
Setting [9] is: Day 11 vs Day 8 (cell stands under Day 8).
[10] abbreviates: Day 13 vs Day 11 (cell stands under Day 11).
[11] abbreviates: Day 15 vs Day 13 (cell stands under Day 13).
The mark [12] stands for this setting: Day 18 vs Day 15 (cell stands under Day 15).
Setting [13] is: Day 20 vs Day 18 (cell stands under Day 18).

In the case of `COC(=O)CCSC1=C(/C=C/C2=[N+](CCCCS(=O)(=O)[O-])c3ccccc3C2(C)C)CCC/C1=C\C=C1\N(CCCCCC(=O)O)c2ccccc2C1(C)C` [Dye 2], the “toxicity by Nuclei Counts” value in series [1] was “not toxic”.
As to `CCCCN1/C(=C/C=C2\CCCC(/C=C/C3=[N+](CCCCS(=O)(=O)[O-])c4ccccc4C3(C)C)=C2SCCC(=O)NCCC(=O)N2Cc3ccccc3-c3nnn(CCOCCOCCOCCOCCOCCOCCOCCOCCNC(=O)COCC(=O)N[C@H](C(=O)N[C@@H](CCCNC(N)=O)C(=O)Nc4ccc(COC(=O)N[C@@H]5CC(O[C@@H]6C[C@@](O)(C(=O)CO)Cc7c(O)c8c(c(O)c76)C(=O)c6c(OC)cccc6C8=O)O[C@H](C)[C@H]5O)cc4)C(C)C)c3-c3ccccc32)C(C)(C)c2ccccc21` (stereo partly drawn) [Compound XVI, Dye1-PEG8-Val-Cit-PABA-Doxorubicin], the Tumor increase rate in the series with SW620 tumor [2] (Day 3 vs Day 1 (cell stands under Day 1)) was 63%; in the series on SW620 tumor [2] (Day 5 vs Day 3 (cell stands under Day 3)), 1.1%; in the series on SW620 tumor [2] (Day 8 vs Day 5 (cell stands under Day 5)) it was 2.4%; in the series with SW620 tumor [2] (Day 10 vs Day 8 (cell stands under Day 8)), 5.5%. For the same molecule, the Tumor size in the series with SW620 tumor [2] (Day 1 (Table 10 schedule)) is on record as 855.4 mm^3; in the series on SW620 tumor [2] (Day 3), 1393.5 mm^3; in the series on SW620 tumor [2] (Day 5) it was 1409 mm^3; with SW620 tumor [2] (Day 8 (Table 10 schedule)) it was 1443 mm^3; in the series with SW620 tumor [2] (Day 10), 1523.7 mm^3. The figures for the tumor growth rate in the series with SW620 tumor [2] (as low as) and with SW620 tumor [2] (initial) were 0.4% and 24%, respectively. Further, the “NIR fluorescent signal in tumor (organ imaging)” value in the series with SW620 tumor [3] (first dose 10 mg/kg, day 17 after intravenous tail injection) is “strong NIR fluorescent signals”; with SW620 tumor [3] (second dose 15 mg/kg, day 7 after intravenous tail injection, versus first dose day 17) it was “more intense”. In addition, in the series on SW620 tumor [3], the “tumor accumulation, whole body NIR imaging” value is listed as “accumulate selectively in the tumor sites”. For the same molecule, the “uptake by NIR Mean Intensity” value in series [4] is “taken up well”.
For the molecule `CCCCN1/C(=C/C=C2\CCCC(/C=C/C3=[N+](CCCCS(=O)(=O)[O-])c4ccccc4C3(C)C)=C2SCCC(=O)O)C(C)(C)c2ccccc21` [Dye 1], the “toxicity by Nuclei Counts” value in series [1] was “not toxic”. The “NIR signal (organ imaging)” value in the series with SW620 tumor [3] (first dose 4.37 mg/kg, day 17 after intravenous tail injection) was “no NIR signals”; in the series on SW620 tumor [3] (second dose 4.37 mg/kg, day 7 after intravenous tail injection) it was “strong NIR signals”.
Turning to `CCCCN1/C(=C/C=C2\CCCC(/C=C/C3=[N+](CCCCS(=O)(=O)[O-])c4ccccc4C3(C)C)=C2SCCC(=O)NCCC(=O)N2Cc3ccccc3-c3nnn(CCOCCOCCOCCOCCOCCOCCOCCOCCNC(=O)COCC(=O)N[C@H](C(=O)N[C@@H](CCCNC(N)=O)C(=O)Nc4ccc(COC(=O)Oc5ccc6nc7c(c(CC)c6c5)Cn5c-7cc6c(c5=O)COC(=O)[C@]6(O)CC)cc4)C(C)C)c3-c3ccccc32)C(C)(C)c2ccccc21` [Compound XV, Dye1-PEG8-Val-Cit-PABA-SN-38], the Tumor size in the series with SW620 tumor [5] (Day 1) worked out at 163.7; in the series on SW620 tumor [5] (Day 4) it was 235.4; in the series on SW620 tumor [5] (Day 6) it was 364.9; with SW620 tumor [5] (Day 8), 794.5; in the series on SW620 tumor [5] (Day 11) it was 988.8; in the series on SW620 tumor [5] (Day 13), 11114.9. The Tumor size in the series with SW620 tumor [5] (Day 15) was found to be 1193.3; with SW620 tumor [5] (Day 18), 1239.1; in the series with SW620 tumor [5] (Day 20), 1342.1; in the series on SW620 tumor [2] (Day 1), 163.7 mm^3; in the series with SW620 tumor [2] (Day 4), 235.4 mm^3; with SW620 tumor [2] (Day 6) it was 364.9 mm^3. Moreover, the Tumor size in the series on SW620 tumor [2] (Day 8) is listed as 794.5 mm^3; in the series on SW620 tumor [2] (Day 11), 988.8 mm^3; with SW620 tumor [2] (Day 13), 11114.9 mm^3; with SW620 tumor [2] (Day 15), 1193.3 mm^3; in the series on SW620 tumor [2] (Day 18) it was 1239.1 mm^3; in the series on SW620 tumor [2] (Day 20), 1342.1 mm^3. The Tumor increase rate with SW620 tumor [5] (setting [6]) is reported as 44%; in the series on SW620 tumor [5] (setting [7]) it was 55%; in the series with SW620 tumor [5] (setting [8]) it was 118%; with SW620 tumor [5] (setting [9]) it was 25%; in the series on SW620 tumor [5] (setting [10]) it was 12.7%; with SW620 tumor [5] (setting [11]) it was 7%. The Tumor increase rate in the series on SW620 tumor [5] (setting [12]) came out at 3.8%; in the series on SW620 tumor [5] (setting [13]), 8.3%; in the series on SW620 tumor [2] (setting [6]), 44%; in the series with SW620 tumor [2] (setting [7]), 55%; in the series on SW620 tumor [2] (setting [8]), 118%; in the series with SW620 tumor [2] (setting [9]), 25%. Besides, the Tumor increase rate in the series with SW620 tumor [2] (setting [10]) is given as 12.7%; with SW620 tumor [2] (setting [11]), 7%; in the series on SW620 tumor [2] (setting [12]), 3.8%; in the series with SW620 tumor [2] (setting [13]) it was 8.3%. Moreover, the tumor growth rate in the series with SW620 tumor [5] (after the second dose (15 mg/kg, Day 11), low) is listed as 4%; in the series with SW620 tumor [5] (before the second dose), 63%; in the series on SW620 tumor [2] (as low as), 1%; in the series with SW620 tumor [2] (initial), 63%. For the same molecule, the “tumor accumulation, whole body NIR imaging” value in the series on SW620 tumor [3] is “accumulate selectively in the tumor sites”. In the series with SW620 tumor [3] (second dose 15 mg/kg, 24 hr after intravenous tail injection, auto exposure), the “organ NIR fluorescent signal” value is recorded as “the tumor showed the strongest NIR fluorescent signal among all the organs”. In series [4], the “uptake by NIR Mean Intensity” value is “taken up well”.
